Assays:
L106P hMC4R = L106P hMC4R (Homo sapiens, UniProt P32245, L106P); assay: cAMP based CRE/β-galactosidase reporter gene functional bioassay, L106P hMC4R; type: cell-based
WT hMC4R = WT hMC4R (Homo sapiens, UniProt P32245); type: cell-based
Chain of WT hMC4R (P32245 whole entry): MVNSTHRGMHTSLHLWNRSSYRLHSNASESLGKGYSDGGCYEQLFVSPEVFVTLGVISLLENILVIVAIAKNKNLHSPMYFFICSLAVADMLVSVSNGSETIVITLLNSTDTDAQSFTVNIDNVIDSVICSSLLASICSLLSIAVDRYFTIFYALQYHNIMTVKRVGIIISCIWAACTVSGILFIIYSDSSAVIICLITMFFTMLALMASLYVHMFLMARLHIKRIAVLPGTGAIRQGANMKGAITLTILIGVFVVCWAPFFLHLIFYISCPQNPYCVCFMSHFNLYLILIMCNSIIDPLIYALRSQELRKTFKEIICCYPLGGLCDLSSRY

Chain of L106P hMC4R (P32245 whole entry L106P): as the sequence (P32245 whole entry) above, with L106P counted along it

CC(=O)N[C@@H](Cc1cnc[nH]1)C(=O)N[C@H](Cc1ccccc1)C(=O)N[C@@H](CCCN=C(N)N)C(=O)N1Cc2ccccc2C[C@H]1C(N)=O [EMH4-107, Ac-His-DPhe-Arg-Tic-NH2]
EC50 (L106P hMC4R): > 100 µM
EC50 (WT hMC4R): > 10 µM

Source: PMC4324447 (Journal of Medicinal Chemistry, 2014)
